According to patent publication US10004732B2 (Novartis AG, priority 2014, dated 2018):

Columns and labels:
[1] = target: T1, PI 3-kinase alpha (Homo sapiens, UniProt P42336); assay: Kinase Glo Luminescent Kinase Assay (Kglo), assay A; assay type: biochemical; conditions: read-out: Assay A PI3Kα IC50
[2] = target: T2, PI 3-kinase beta (Homo sapiens, UniProt P42338); assay: Kinase Glo Luminescent Kinase Assay (Kglo), assay B; assay type: biochemical; conditions: read-out: Assay B PI3Kβ IC50
Target sequence in this assay (P42338 whole entry): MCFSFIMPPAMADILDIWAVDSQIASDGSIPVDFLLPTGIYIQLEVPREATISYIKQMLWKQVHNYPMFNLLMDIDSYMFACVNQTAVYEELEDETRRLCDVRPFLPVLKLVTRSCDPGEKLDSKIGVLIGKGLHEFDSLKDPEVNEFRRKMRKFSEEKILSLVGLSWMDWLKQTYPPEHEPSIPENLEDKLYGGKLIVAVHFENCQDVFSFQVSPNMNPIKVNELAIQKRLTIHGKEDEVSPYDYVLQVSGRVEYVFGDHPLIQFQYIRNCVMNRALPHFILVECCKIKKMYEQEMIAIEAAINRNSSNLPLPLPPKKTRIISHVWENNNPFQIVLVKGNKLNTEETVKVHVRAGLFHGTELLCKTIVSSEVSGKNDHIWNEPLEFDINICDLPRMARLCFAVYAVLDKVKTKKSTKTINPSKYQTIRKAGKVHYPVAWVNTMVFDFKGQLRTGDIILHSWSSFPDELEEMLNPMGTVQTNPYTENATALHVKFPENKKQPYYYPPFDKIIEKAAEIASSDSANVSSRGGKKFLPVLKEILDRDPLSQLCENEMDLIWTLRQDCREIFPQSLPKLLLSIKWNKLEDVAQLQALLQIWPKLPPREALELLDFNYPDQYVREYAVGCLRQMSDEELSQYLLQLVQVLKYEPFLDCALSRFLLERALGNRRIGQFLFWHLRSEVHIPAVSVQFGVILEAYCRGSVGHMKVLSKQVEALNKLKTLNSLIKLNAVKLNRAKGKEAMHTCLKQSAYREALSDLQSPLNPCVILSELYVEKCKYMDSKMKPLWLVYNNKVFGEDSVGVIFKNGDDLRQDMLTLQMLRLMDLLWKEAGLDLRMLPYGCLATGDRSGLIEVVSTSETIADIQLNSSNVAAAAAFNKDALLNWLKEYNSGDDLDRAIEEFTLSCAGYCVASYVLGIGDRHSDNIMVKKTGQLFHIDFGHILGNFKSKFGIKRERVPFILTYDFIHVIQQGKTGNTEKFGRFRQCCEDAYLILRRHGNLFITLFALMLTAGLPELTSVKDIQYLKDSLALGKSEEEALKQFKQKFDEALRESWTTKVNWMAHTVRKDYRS
Target sequence in this assay (P27986 461-568 partner): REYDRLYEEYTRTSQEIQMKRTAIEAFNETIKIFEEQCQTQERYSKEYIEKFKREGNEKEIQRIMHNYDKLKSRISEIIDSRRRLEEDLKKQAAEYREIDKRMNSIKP

[3] = target: Vps34 (Homo sapiens, UniProt Q8NEB9); assay: Kinase Glo Luminescent Kinase Assay (Kglo), assay C; assay type: biochemical; conditions: read-out: Assay C VPS34 IC50
Chain of Vps34 (Q8NEB9 whole entry, species assumed): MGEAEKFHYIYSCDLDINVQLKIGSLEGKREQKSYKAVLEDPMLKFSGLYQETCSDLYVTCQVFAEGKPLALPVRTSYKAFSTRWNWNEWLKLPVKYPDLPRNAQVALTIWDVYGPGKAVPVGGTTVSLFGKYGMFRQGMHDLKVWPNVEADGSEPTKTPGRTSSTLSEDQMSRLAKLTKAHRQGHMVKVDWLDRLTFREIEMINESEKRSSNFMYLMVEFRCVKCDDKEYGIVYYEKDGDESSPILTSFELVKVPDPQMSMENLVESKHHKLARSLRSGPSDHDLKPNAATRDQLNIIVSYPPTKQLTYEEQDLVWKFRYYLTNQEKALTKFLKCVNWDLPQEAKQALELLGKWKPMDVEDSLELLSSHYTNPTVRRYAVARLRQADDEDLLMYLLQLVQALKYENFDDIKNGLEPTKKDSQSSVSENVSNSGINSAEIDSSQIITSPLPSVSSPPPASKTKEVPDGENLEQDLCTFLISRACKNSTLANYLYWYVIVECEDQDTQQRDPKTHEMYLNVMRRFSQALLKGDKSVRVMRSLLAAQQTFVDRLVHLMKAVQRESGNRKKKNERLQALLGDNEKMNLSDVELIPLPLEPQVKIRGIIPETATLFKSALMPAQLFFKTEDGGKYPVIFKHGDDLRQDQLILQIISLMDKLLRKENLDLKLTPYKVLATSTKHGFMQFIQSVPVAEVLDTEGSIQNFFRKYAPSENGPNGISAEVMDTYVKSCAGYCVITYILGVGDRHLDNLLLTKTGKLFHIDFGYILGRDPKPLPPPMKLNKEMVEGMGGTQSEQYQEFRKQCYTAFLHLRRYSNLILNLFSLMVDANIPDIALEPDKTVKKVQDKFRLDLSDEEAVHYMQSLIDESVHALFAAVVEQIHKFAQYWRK

[4] = target: PI 4-kinase beta (Homo sapiens, UniProt Q9UBF8); assay: Kinase Glo Luminescent Kinase Assay (Kglo), assay D; assay type: biochemical; conditions: read-out: Assay D PI4Kβ IC50
Chain of PI 4-kinase beta (Q9UBF8 whole entry): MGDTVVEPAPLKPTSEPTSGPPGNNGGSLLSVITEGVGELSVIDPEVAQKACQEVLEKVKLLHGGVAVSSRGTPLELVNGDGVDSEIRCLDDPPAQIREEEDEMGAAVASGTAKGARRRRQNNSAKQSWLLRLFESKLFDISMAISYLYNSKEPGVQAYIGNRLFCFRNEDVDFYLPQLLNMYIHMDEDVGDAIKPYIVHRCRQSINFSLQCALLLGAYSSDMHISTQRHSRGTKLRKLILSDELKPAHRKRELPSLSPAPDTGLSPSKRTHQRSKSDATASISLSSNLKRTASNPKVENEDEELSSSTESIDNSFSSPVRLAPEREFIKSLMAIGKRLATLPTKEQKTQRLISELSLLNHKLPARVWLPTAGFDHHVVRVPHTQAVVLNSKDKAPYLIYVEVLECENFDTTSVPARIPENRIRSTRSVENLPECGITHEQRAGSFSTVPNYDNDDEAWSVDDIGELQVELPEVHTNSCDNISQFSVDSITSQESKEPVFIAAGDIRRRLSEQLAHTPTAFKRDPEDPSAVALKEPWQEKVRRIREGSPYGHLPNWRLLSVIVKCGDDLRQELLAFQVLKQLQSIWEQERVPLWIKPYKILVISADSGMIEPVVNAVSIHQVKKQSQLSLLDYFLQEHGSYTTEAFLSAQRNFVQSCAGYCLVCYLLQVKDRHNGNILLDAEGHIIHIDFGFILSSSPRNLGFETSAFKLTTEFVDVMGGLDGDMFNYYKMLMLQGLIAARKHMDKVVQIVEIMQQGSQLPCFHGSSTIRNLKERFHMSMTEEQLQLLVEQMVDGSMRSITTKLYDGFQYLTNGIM

[5] = target: T3, PI 3-kinase gamma (Homo sapiens, UniProt P48736); assay: TR-FRET Adapta assay, assay E; assay type: biochemical; conditions: read-out: Assay E PI3Kγ IC50
[6] = target: mTOR (Homo sapiens, UniProt P42345); assay: Lanthascreen kinase binding assay, assay G; conditions: read-out: Assay G mTOR IC50
Procedure: Lanthascreen™ Kinase Binding Assay for mTOR (G)
Binding of an inhibitor to the kinase competes for binding with the tracer, resulting in a loss of FRET.
50 nL of compound dilutions were dispensed onto white 384-well small volume polystyrene plate.

[7] = target: T1, PI 3-kinase alpha; assay: Cellular assay H1, p-Akt (S473) in Rat-1 cells, Surefire format; assay type: cell-based; conditions: non-asterisked data: version H1 (Surefire format), Rat-1 cells; read-out: Assay H PI3Kα IC50
[8] = target: T2, PI 3-kinase beta; assay: Cellular assay I1, p-Akt (S473) in Rat-1 cells, Surefire format; assay type: cell-based; conditions: non-asterisked data: version I1 (Surefire format), Rat-1 cells; read-out: Assay I PI3Kβ IC50
Target sequence in this assay (P42338 whole entry): as the sequence (P42338 whole entry) above
Target sequence in this assay (Q63787 whole entry partner): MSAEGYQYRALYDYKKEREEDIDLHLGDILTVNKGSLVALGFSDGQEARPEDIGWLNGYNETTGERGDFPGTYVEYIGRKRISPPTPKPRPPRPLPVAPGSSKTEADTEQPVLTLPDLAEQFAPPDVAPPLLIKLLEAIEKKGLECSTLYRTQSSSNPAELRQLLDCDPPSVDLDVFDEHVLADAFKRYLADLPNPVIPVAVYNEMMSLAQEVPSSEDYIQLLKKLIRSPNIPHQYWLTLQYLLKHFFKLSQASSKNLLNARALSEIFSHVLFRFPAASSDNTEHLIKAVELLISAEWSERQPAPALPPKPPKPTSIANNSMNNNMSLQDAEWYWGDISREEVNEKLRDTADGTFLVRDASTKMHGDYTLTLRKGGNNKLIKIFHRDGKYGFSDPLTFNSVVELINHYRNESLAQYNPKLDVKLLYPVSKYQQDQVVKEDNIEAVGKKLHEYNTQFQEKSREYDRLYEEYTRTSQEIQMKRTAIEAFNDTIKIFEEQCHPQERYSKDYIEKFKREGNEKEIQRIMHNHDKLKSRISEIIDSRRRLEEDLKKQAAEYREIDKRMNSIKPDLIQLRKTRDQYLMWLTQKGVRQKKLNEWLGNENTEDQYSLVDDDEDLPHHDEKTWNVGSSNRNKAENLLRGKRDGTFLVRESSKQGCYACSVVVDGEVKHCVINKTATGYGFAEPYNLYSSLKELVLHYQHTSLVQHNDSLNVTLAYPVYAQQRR

[9] = target: T4, PI 3-kinase delta (Homo sapiens, UniProt O00329); assay: Cellular assay J1, p-Akt (S473) in Rat-1 cells, Surefire format; assay type: cell-based; conditions: non-asterisked data: version J1 (Surefire format), Rat-1 cells; read-out: Assay J PI3Kδ IC50
Target sequence in this assay (O00329 whole entry): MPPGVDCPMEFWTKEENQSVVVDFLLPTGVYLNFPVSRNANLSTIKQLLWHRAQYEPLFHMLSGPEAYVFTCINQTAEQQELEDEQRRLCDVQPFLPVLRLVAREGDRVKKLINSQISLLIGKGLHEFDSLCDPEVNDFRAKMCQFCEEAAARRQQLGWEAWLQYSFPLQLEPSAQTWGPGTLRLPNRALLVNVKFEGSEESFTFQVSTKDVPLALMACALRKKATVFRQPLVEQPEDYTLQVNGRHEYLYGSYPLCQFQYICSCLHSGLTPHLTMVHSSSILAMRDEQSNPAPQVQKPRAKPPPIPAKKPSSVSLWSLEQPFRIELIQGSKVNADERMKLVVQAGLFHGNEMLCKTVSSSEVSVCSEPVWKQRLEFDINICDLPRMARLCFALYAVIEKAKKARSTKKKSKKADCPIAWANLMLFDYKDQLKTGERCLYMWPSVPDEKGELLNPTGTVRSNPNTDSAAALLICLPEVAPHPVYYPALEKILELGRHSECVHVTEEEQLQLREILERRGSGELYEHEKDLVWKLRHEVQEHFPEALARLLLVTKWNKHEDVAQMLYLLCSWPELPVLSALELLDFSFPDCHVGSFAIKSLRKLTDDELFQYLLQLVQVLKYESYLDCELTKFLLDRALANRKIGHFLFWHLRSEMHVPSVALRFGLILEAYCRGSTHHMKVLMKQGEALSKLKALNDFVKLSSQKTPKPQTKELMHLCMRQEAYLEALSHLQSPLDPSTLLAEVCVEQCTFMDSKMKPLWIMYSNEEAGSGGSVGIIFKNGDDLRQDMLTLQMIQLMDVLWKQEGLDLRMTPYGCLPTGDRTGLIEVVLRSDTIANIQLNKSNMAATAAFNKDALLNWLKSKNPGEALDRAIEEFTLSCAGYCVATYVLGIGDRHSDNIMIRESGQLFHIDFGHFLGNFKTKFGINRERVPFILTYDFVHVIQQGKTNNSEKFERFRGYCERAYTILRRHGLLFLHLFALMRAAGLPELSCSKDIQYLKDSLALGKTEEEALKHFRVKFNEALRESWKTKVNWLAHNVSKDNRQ
Target sequence in this assay (Q63787 whole entry partner): as the sequence (Q63787 whole entry partner) above
Source text: Cellular Assays for PI 3-Kinase Alpha (H1), Beta (I1) and Delta (J1): Surefire Format
AlphaScreen (Amplified Luminescent Proximity Homogeneous Assay, ALPHA, Perkin Elmer) is a non-radioactive bead-based proximity assay technology to study biomolecular interactions in a homogenous microtiter plate format. The brand name SureFire denotes AlphaScreen assays that are adapted to quantify the phosphorylation of endogenous cellular proteins in cell lysates, by using matched antibody pairs, which consist of an anti-phospho-kinase and an anti-kinase antibody. The assay allows characterization of kinase signaling in cells as well as measurement of kinase inhibitor effects.
Using Rat-1 cells stably expressing myr-HA-tagged versions of the human PI3Kdelta, PI3Kalpha, or PI3Kbeta p110 catalytic subunit isoforms, the assay was developed as a two-plate protocol in a 384-well format.
For compound testing, the cells were seeded at a density of 4000 (Rat-1_PI3Kdelta), 7500 (Rat-1_PI3Kalpha), or 6200 (Rat-1_PI3Kbeta) cells in 20 μl complete growth medium into cell culture treated 384-well plates and were grown at 37° C./5% CO2/90% humidity for 24 h. Shortly before compound transfer, the complete medium was removed, 30 μl assay buffer (DMEM high glucose, 1×MEM NEAA, 10 mM HEPES, 2 mM L-glutamine, 0.1% (w/v) BSA) was added and 10 μl of the compound predilutions were transferred to the cells.

[10] = target: T3, PI 3-kinase gamma; assay: Cellular U937 AKT assay K1 (MSD); assay type: cell-based; conditions: U937 cells, K1 format; read-out: Assay K1 PI3Kγ IC50
[11] = target: T4, PI 3-kinase delta; assay: TR-FRET Adapta assay, assay F; conditions: read-out: Assay F PI3Kδ IC50
Target sequence in this assay (O00329 whole entry): as the sequence (O00329 whole entry) above
Target sequence in this assay (P27986 461-568 partner): as the sequence (P27986 461-568 partner) above

[12] = Microsomal clearance assay (M); conditions: intrinsic clearance in rat liver microsomes
Procedure: The experiments were performed in 96-well glass plates at 37° C. on an automated Tecan EVO platform. Test compounds at a concentration of 10 mM in pure DMSO were diluted 1:1000 in water to 10 μM. […] Reactions were initiated by the addition of 150 μL of a cofactor solution containing 2 mM NADPH.

[13] = tested on: IL-8-induced neutrophil shape change in human whole blood; assay: Whole blood neutrophil shape change assay (L); assay type: cell-based; conditions: Homo sapiens, Neutrophil, IL-8, human whole blood, read-out: Assay L WBSC IC50

| SMILES | IC50 [1] [nM] | IC50 [2] [nM] | IC50 [3] [nM] | IC50 [4] [nM] | IC50 [5] [nM] | IC50 [6] [nM] | IC50 [7] [nM] | IC50 [8] [nM] | IC50 [9] [nM] | IC50 [10] [nM] | IC50 [11] [nM] | Assay M RLM CI(int) [12] [µL/min/mg] | IC50 [13] [nM] |
| --- | --- | --- | --- | --- | --- | --- | --- | --- | --- | --- | --- | --- | --- |
| Cc1ccc(S(=O)(=O)NCCC(C)(C)O)cc1-c1cnc(N)c(-n2cnc(C(C)C)n2)n1 [Example 66, 3-(5-Amino-6-(3-isopropyl-1H-1,2,4-triazol-1-yl)pyrazin-2-yl)-N-(3-hydroxy-3-methylbutyl)-4-methylbenzenesulfonamide] | 190 | > 9100 | > 9100 | 7940 | 6 | 5980 | 990 | 5920 | 730 | 109 | 80 | 311 |  |
| Cc1cc(-c2nc(-c3cc(S(=O)(=O)N[C@H]4CC[C@@H](O)CC4)ccc3C)cnc2N)ccn1 [Example 76, 3-(5-Amino-6-(2-methylpyridin-4-yl)pyrazin-2-yl)-N-((1s,4s)-4-hydroxycyclohexyl)-4-methylbenzenesulfonamide] | 180 | 3710 | > 9100 | 4470 | 64 | 4190 | 3370 | > 10000 | 3520 | 203 | 480 | 48 |  |
| Cc1cc(F)c(S(=O)(=O)NCCC(C)(C)O)cc1-c1cnc(N)c(-n2cncn2)n1 [Example 116, 5-(5-Amino-6-(1H-1,2,4-triazol-1-yl)pyrazin-2-yl)-2-fluoro-N-(3-hydroxy-3-methylbutyl)-4-methylbenzenesulfonamide] | 1200 | > 9100 | > 9100 | 8100 | 28 | > 9100 | 2310 | 4750 | 2120 | 197 | 300 | 35 |  |
| COc1cc(-c2nc(-c3cc(S(=O)(=O)NCCC(C)(C)O)ccc3C)cnc2N)ccn1 [Example 119.3] | 90 | 7490 | > 9100 | 7460 | 44 | 3700 | 490 | 1770 | 870 | 3640 | 130 | 81 |  |
| Cc1ccc(S(=O)(=O)NCCC(C)(C)O)cc1-c1cnc(N)c(-c2cccnc2)n1 [Example 119.5] | 750 | > 9100 | > 9100 | 8000 | 82 | > 9100 | 4900 | 1660 | 4850 | 575 | 550 | 118 |  |
| CCOc1ccc(-c2nc(-c3cc(S(=O)(=O)NCCC(C)(C)O)ccc3C)cnc2N)cn1 [Example 119.13] | 580 | > 9100 | > 9100 | 4140 | 98 | > 9100 | 2450 | 6750 | 3260 | > 10000 | 450 | 98 |  |
| Cc1ccc(S(=O)(=O)NCCC(C)(C)O)cc1-c1cnc(N)c(-c2cnn(Cc3cccnc3)c2)n1 [Example 119.38] | 90 | 3500 | > 9100 | 6300 | 12 | 4600 | 6570 | 2210 | 1030 | 34 | 30 | 167 |  |
| Cc1ccc(S(=O)(=O)NCCC(C)(C)O)cc1-c1cnc(N)c(-c2cnn(Cc3ccncc3)c2)n1 [Example 119.39] | 100 | 2800 | > 9100 | 6500 | 6 | 6900 | 5040 | 2150 | 1610 | 34 | 40 | 203 |  |
| Cc1ccc(S(=O)(=O)NCCC(C)(C)O)cc1-c1cnc(N)c(-c2cnn(CCN3CCOCC3)c2)n1 [Example 119.41] | 420 | 3250 | > 10000 | 6000 | 25 | > 10000 | > 10000 | 3200 | 6490 | 91 | 30 | 73 |  |
| Cc1cc(Cl)c(S(=O)(=O)NCC(C)(C)O)cc1-c1cnc(N)c(-n2cncn2)n1 [Example 124, 5-(5-Amino-6-(1H-1,2,4-triazol-1-yl)pyrazin-2-yl)-2-chloro-N-(2-hydroxy-2-methylpropyl)-4-methylbenzenesulfonamide] | 40 | 100 | > 10000 | 420 | 22 | 710 | 250 | 810 | 290 | 38 | 160 | 79 |  |
| Cc1ccc(S(=O)(=O)NCC(F)(F)F)cc1-c1cnc(N)c(-n2cncn2)n1 [Example 127, 3-(5-Amino-6-(1H-1,2,4-triazol-1-yl)pyrazin-2-yl)-4-methyl-N-(2,2,2-trifluoroethyl)benzenesulfonamide] | 300 | 1100 | > 10000 | 4400 | 24 | 2600 |  |  |  |  | 880 |  | 1500 |
| Cc1ccc(S(=O)(=O)NC2CC(F)(F)C2)cc1-c1cnc(N)c(-n2cncn2)n1 [Example 127.7] | 260 | 1300 | > 10000 | 6300 | 40 | 1500 |  |  |  |  | 1100 |  | 3990 |
| Cc1ccc(S(=O)(=O)NCC2(O)CCC2)cc1-c1cnc(N)c(-n2cncn2)n1 [Example 127.16] | 330 | 810 | > 10000 | 5000 | 45 | 8700 |  |  |  |  | 1100 |  | 1720 |
| Cc1ccc(S(=O)(=O)NC[C@@H]2CCOC2)cc1-c1cnc(N)c(-n2cncn2)n1 [Example 127.26] | 570 | 2000 | > 10000 | 5200 | 150 | 5900 |  |  |  |  | 230 |  | 1790 |
| Cc1ccc(S(=O)(=O)NCCC(F)(F)F)cc1-c1cnc(N)c(-n2cncn2)n1 [Example 127.31] | 190 | 1550 | > 10000 | 4870 | 67 | 7950 | 850 | 1710 | 1050 | 103 | 450 | 192 |  |
| Cc1ccc(S(=O)(=O)NC[C@@H]2CCC(C)(C)O2)cc1-c1cnc(N)c(-n2cncn2)n1 [Example 127.39] | 1400 | 2300 | > 10000 | > 10000 | 100 | 9300 |  |  |  |  | 2100 |  | 6280 |
| Cc1ccc(S(=O)(=O)N[C@H](C#N)CO)cc1-c1cnc(N)c(-n2cncn2)n1 [Example 127.48] | 1200 | 6200 | > 10000 | 5900 | 60 |  |  |  |  |  | 3200 |  | 2490 |
| Cc1cc(-c2nc(-c3cc(S(=O)(=O)NCC4CCCO4)ccc3C)cnc2N)ccn1 (centres unmarked) [Example 129.17, 3-(5-amino-6-(2-methylpyridin-4-yl)pyrazin-2-yl)-4-methyl-N-((tetrahydrofuran-2-yl)methyl)benzenesulfonamide] | 350 | 5500 | > 9100 | > 9100 | 56 | > 9100 | 2500 | 3720 | 1940 | 354 | 420 | 104 |  |
| Cc1cc(-c2nc(-c3cc(S(=O)(=O)NCC4CCOC4)ccc3C)cnc2N)ccn1 (centres unmarked) [Example 129.18, 3-(5-amino-6-(2-methylpyridin-4-yl)pyrazin-2-yl)-4-methyl-N-((tetrahydrofuran-3-yl)methyl)benzenesulfonamide] | 690 | 8110 | > 9100 | > 9100 | 64 | > 9100 | 4920 | > 10000 | 5630 | 528 | 400 | 97 |  |
